US9932637B2, “Genetic polymorphisms associated with cardiovascular disorders and drug response, methods of detection and uses thereof” (CELERA CORPORATION, priority 2003, dated 2018)

Tested on: patients with prior myocardial infarction (CARE study)
Experiment: CARE trial: pravastatin vs placebo, recurrent MI (RMI), overall and by ABCA1/NPC1/HSPG2 genotype pattern
Assay type: in vivo, human
Source text: In order to identify genetic markers associated with acute coronary events (e.g. MI, stroke, unstable angina, congestive heart failure, etc.) or response to statin treatment for the prevention of coronary events, samples from the Cholesterol and Recurrent Events (CARE) study (a randomized multicentral double-blinded trial on secondary prevention of acute coronary events with pravastatin) (Sacks et al., 1991, Am. J. Cardiol. 68: 1436-1446) were genotyped. A well-documented myocardial infarction (MI) was one of the enrollment criteria for entry into the CARE study. Patients were enrolled in the CARE trial from 80 participating study centers. […] Patients were randomized to receive either 40 mg of pravastatin once daily or a matching placebo. The primary endpoint of the trial was death from coronary heart disease and the median duration of follow-up was 5.0 years (range, 4.0 to 6.2 years). […] Secondary endpoints of other related cardiovascular or metabolic disease events, and changes in clinical variables were also recorded in pravastatin-treated and placebo groups. All individuals included in the study had signed a written informed consent form and the study protocol was approved by the respective Institutional Review Boards (IRBs).
For genotyping SNPs in CARE patient samples, DNA was extracted from blood samples using conventional DNA extraction methods such as the QIA-amp kit from Qiagen. Genotypes were obtained on an ABI PRISM® 7900HT Sequence Detection PCR system (Applied Biosystems, Foster City, Calif.) by kinetic allele-specific PCR, similar to the method described by Germer et al. (Germer S., Holland M. J., Higuchi R. 2000, Genome Res. 10: 258-266).
The genotype data generated from the DNA of patients who participated in the CARE study was analyzed to determine the effect that pravastatin treatment had on the occurrence of RMI in patients with each of the potential genotypes (low risk, protective or high risk, non-protective) for the ABCA1 gene, the NPC1 gene and the […] gene independently.
The effect of pravastatin treatment on the occurrence of RMI in patients with each of the potential genotypes (protective, low risk genotype or non-protective, high risk genotype) for each of the ABCA1 gene, NPC1 gene, and HSPG2 gene alone, and combinations with the other two genes thereof are presented in Table 17.
This is a 50% reduction in risk over a 5 year period for RMI. […] This is an 80% reduction in risk over a 5 year period for RMI.

[1] = Pattern 0, pravastatin vs placebo
[2] = Pattern 2, pravastatin vs placebo
[3] = Pattern 3, pravastatin vs placebo

Q: `CC[C@H](C)C(=O)O[C@H]1C[C@H](O)C=C2C=C[C@H](C)[C@H](CC[C@@H](O)C[C@@H](O)CC(=O)O)[C@H]21` [pravastatin] was tested. Which “No RMI (number of patients)” value (All, pravastatin arm) did it give?
A: 1367

Q: What about the “RMI (number of patients)” value (All, pravastatin arm) of the same compound?
A: 106

Q: And the “Risk (of RMI)” value (All, pravastatin arm)?
A: 0.072

Q: And the RDStatin (All, pravastatin vs placebo)?
A: 0.023

Q: What about the RRStatin (All, pravastatin vs placebo) of the same compound?
A: 0.76

Q: And the “5 year risk of a RMI” value (CARE patients with pattern 0 genotypes receiving pravastatin)?
A: 7.9%

Q: What about the “5 year risk of a RMI” value (CARE patients with pattern 2 genotypes receiving pravastatin) of the same compound?
A: 6.8%

Q: What about the “5 year risk of a RMI” value (CARE patients with pattern 3 genotype receiving pravastatin) of the same compound?
A: 4.6%

Q: And the “reduction in risk for RMI in treatment vs. placebo groups” value (CARE, all patients)?
A: 25%

Q: What about the “5 year risk of having a recurrent MI (RMI)” value (CARE, all patients who received pravastatin 40 mg once daily) of the same compound?
A: 7.2%

Q: What about the “Cox Proportional Hazard Ratio (HR age-adjusted) for RMI” value (CARE, all patients, pravastatin vs placebo) of the same compound?
A: 0.75

Q: And the “Age-adjusted pravastatin effect on RMI, RR” value (High risk ABCA1 genotype)?
A: 0.9567

Q: What about the “Age-adjusted pravastatin effect on RMI, RR” value (High risk HSPG2 genotype) of the same compound?
A: 0.8097

Q: And the “Age-adjusted pravastatin effect on RMI, RR” value (High risk NPC1 genotype)?
A: 1.0824

Q: What about the “Age-adjusted pravastatin effect on RMI, RR” value (High risk, non-protective genotypes (ABCA1, NPC1, HSPG2)) of the same compound?
A: 1.7175

Q: What about the “Age-adjusted pravastatin effect on RMI, RR” value (Low risk ABCA1, NPC1 and HSPG2 (pattern 3 genotype)) of the same compound?
A: 0.2399

Q: And the “Age-adjusted pravastatin effect on RMI, RR” value (Low risk ABCA1 and HSPG2 only)?
A: 1.0054

Q: And the “Age-adjusted pravastatin effect on RMI, RR” value (Low risk ABCA1 and NPC1 only (pattern 2 genotype))?
A: 0.5258

Q: What about the “Age-adjusted pravastatin effect on RMI, RR” value (Low risk ABCA1 genotype) of the same compound?
A: 0.5883

Q: What about the “Age-adjusted pravastatin effect on RMI, RR” value (Low risk HSPG2 genotype) of the same compound?
A: 0.3934

Q: And the “Age-adjusted pravastatin effect on RMI, RR” value (Low risk NPC1 and HSPG2 only)?
A: 0.2964

Q: And the “Age-adjusted pravastatin effect on RMI, RR” value (Low risk NPC1 genotype)?
A: 0.5938

Q: What about the “Age-adjusted pravastatin effect on RMI, RR” value (Low risk, protective ABCA1 only) of the same compound?
A: 0.8765

Q: And the “Age-adjusted pravastatin effect on RMI, RR” value (Low risk, protective HSPG2 only)?
A: 0.2487

Q: What about the “Age-adjusted pravastatin effect on RMI, RR” value (Low risk, protective NPC1 only) of the same compound?
A: 0.8954

Q: What about the “No RMI (number of patients)” value (Pattern 0, pravastatin arm) of the same compound?
A: 906

Q: What about the “RMI (number of patients)” value (Pattern 0, pravastatin arm) of the same compound?
A: 78

Q: What about the “Risk (of RMI)” value (Pattern 0, pravastatin arm) of the same compound?
A: 0.079

Q: What about the RDStatin [1] of the same compound?
A: 0.001

Q: What about the RRStatin [1] of the same compound?
A: 0.98

Q: And the “No RMI (number of patients)” value (Pattern 2, pravastatin arm)?
A: 342

Q: And the “RMI (number of patients)” value (Pattern 2, pravastatin arm)?
A: 25

Q: And the “Risk (of RMI)” value (Pattern 2, pravastatin arm)?
A: 0.068

Q: What about the RDStatin [2] of the same compound?
A: 0.057

Q: And the RRStatin [2]?
A: 0.55

Q: What about the “No RMI (number of patients)” value (Pattern 3, pravastatin arm) of the same compound?
A: 62

Q: And the “RMI (number of patients)” value (Pattern 3, pravastatin arm)?
A: 3

Q: What about the “Risk (of RMI)” value (Pattern 3, pravastatin arm) of the same compound?
A: 0.046

Q: And the RDStatin [3]?
A: 0.147

Q: What about the RRStatin [3] of the same compound?
A: 0.24

Q: What about the “HR for RMI, pravastatin vs no statin” value (pattern 2 genotypes) of the same compound?
A: 0.53

Q: And the “reduction in risk over a 5 year period for RMI” value (pattern 2 genotypes)?
A: 50%

Q: And the “HR for RMI, pravastatin vs no statin” value (pattern 3 genotype)?
A: 0.2

Q: What about the “reduction in risk over a 5 year period for RMI” value (pattern 3 genotype) of the same compound?
A: 80%
